test system: PBMCs from healthy unexposed BCG-vaccinated donors; format: cell-based, human

Row | Sequence | response of BCG-vaccinated unexposed donor to individual peptide
1 | AAKLAGLVFPQPPAP (listed as Mycobacterium tuberculosis) [16-30, from Rv3878] | responded
2 | DTFYDRAQEYSQVLQ (listed as Mycobacterium tuberculosis) [26-40, from Rv3879c, pool 1] | responded
3 | ESLVSDGLPGVKAAL (listed as Mycobacterium tuberculosis) [61-75, from Rv3878] | responded
4 | LDPGASQSTTNPIFG (listed as Mycobacterium tuberculosis) [peptide 174-188, from Rv3873] | responded
5 | LTATNFFGINTIPIA [119-133] | responded
6 | YFIRMWNQAALAMEV (listed as Mycobacterium tuberculosis) [139-153, from pool 2 of Rv3873] | responded
